Results: the supplement of paper PMC12317010

Assay: collision cross section in nitrogen (drift tube, single-field); higher = larger gas-phase ion size
[1] = ion source: ESI, ion mode: Positive, ion type: [M]+ (permanent cation)
[2] = ion type: [M+H], ion source: APCI, ion mode: Positive
[3] = ion type: [M+H], ion source: ESI, ion mode: Positive
[4] = ion type: [M+Na], ion source: ESI, ion mode: Positive
[5] = ion type: [M-H], ion source: ESI, ion mode: Negative
[6] = ion type: [M+], ion source: APCI, ion mode: Positive
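Further: chemical standards at 10 µM analysed by drift tube IMS-QTOF MS in about 3.95 torr nitrogen, mean of duplicate injections differing ≤1%, mass error below 10 ppm.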

SMILES | collision cross section in nitrogen [1] | collision cross section in nitrogen [2] | collision cross section in nitrogen [3] | collision cross section in nitrogen [4] | collision cross section in nitrogen [5] | collision cross section in nitrogen [6] | collision cross section in nitrogen (ion source: APCI, ion mode: Positive, ion type: [M]+ (permanent cation))
C=C(C)C(=O)NCCC[N+](C)(C)C | 143.3 Å² | – | – | – | – | – | –
CC(C)(C)c1csc(-c2cc3cc(OCc4ccccc4CC(=O)O)ccc3o2)n1 | – | 211.8 Å² | 211.5 Å² | 203.4 Å² | – | – | –
CC(C)(c1ccccc1)c1cc(-n2nc3ccccc3n2)c(O)c(C(C)(C)c2ccccc2)c1 | – | 218 Å² | 218 Å² | 223.4 Å² | 222.1 Å² | – | –
CC(C)(O)c1ccc(CNC(=O)c2cccnc2Oc2ccc3nonc3c2)cc1 | – | 196.9 Å² | – | 191.5 Å² | 201 Å² | – | –
CC(C)(O)c1ccc(CNC(=O)c2cccnc2Oc2ccc(F)cc2)cc1 | – | 201.1 Å² | – | 190.4 Å² | 196.7 Å² | – | –
CC(C)(O)c1cnn2c(-c3ccc(F)c(-c4c(F)cccc4C#N)c3)cnc2n1 | – | 197.1 Å² | 196.4 Å² | 209.2 Å² | 198.6 Å² | – | –
CC(C)c1nnc2ccc(-c3ocnc3-c3cc(F)ccc3F)cn12 | – | 177.3 Å² | 177 Å² | 196.3 Å² | 178.7 Å² | – | –
CC(Cc1ccc(OCC(=O)O)cc1)NCC(O)c1csc(C(F)(F)F)n1 (configuration not stated) | – | 181.1 Å² | 181.4 Å² | 181.2 Å² | 184.7 Å² | – | –
Cc1oc(-c2ccccc2)nc1CCOc1cccc2c1ccn2CCC(=O)O | – | 190.8 Å² | 190.6 Å² | 186.3 Å² | – | – | –
Cc1[nH]nc2c1N=C(c1ccccc1Cl)c1cc([N+](=O)[O-])ccc1N2 | – | 180.2 Å² | 180 Å² | – | 181.1 Å² | 180.3 Å² | –
Cc1nc(-c2ccccn2)ncc1C(=O)Nn1cc(C)c2cc(F)ccc21 | – | 184.3 Å² | 184.3 Å² | 181.8 Å² | 193.9 Å² | 190.7 Å² | –
Cc1ncc([C@@H](CCCCCCc2ccc3c(n2)NCCC3)CC(=O)O)cn1 | – | 192.3 Å² | 192.4 Å² | 199.7 Å² | 199.2 Å² | – | –
CCc1nn(C2CCCCC2)c2cc([C@]3(C#N)CC[C@@H](C(=O)O)CC3)ccc12 | – | 206 Å² | 205.4 Å² | – | 213.8 Å² | – | –
CCCC[C@H]1CN(CC2CCOCC2)C(=O)OC12CCN(C1(C)CCN(C(=O)c3c(C)ncnc3C)CC1)CC2 | – | 245 Å² | 244.1 Å² | 240.5 Å² | 248.6 Å² | 239.9 Å² | –
CCCCc1nc2cccnc2n1Cc1ccc(-c2ccccc2-c2nnn[nH]2)cc1 | – | 197 Å² | 196.8 Å² | 205.8 Å² | 204.3 Å² | – | –
CCCN(C1CCN(C(=O)C2CCNCC2)CC1)[C@@H]1CCc2ccc(OC)cc2C1 | – | 209 Å² | 199.1 Å² | 201 Å² | – | – | –
CCN(C(=O)c1cc(C)cc(OC[C@H](C)Nc2ccncc2)c1)C(C)C | – | 186.4 Å² | 186.4 Å² | 194.8 Å² | – | – | –
CCN(CC)CCNc1ccc(CNC=O)c2sc3ccc(OC)cc3c(=O)c12 | – | 196.9 Å² | 197 Å² | 198.8 Å² | – | – | –
CCN1CCC2(CC1)COc1cc3c(cc12)N(C(=O)c1ccc(-c2ccc(-c4nnc(C)o4)cc2C)cc1)CC3 | – | 229.6 Å² | 229.1 Å² | 264.1 Å² | – | – | –
CCn1nc(C)c2c1C(=O)NCC(c1ccc(O)cc1)=N2 | – | 170.8 Å² | 170.3 Å² | – | 172.9 Å² | – | –
CCOC(=O)c1ccc([C@H]2CC[C@H](NC[C@H](O)COc3ccc(O)c(NS(C)(=O)=O)c3)CC2)cc1 | – | 212.8 Å² | 231.4 Å² | 230.3 Å² | 225.6 Å² | – | –
CCOc1ccc2[nH]cc(C(=O)NCc3ccccc3)c(=O)c2n1 | – | 184.3 Å² | 183.9 Å² | 187 Å² | 183.9 Å² | – | –
CCOc1cccc(-n2cc(C(=O)N3CCN(c4cc(C(=O)O)c5ccccc5c4)CC3)nc2-c2ccc(C)cc2)c1 | – | 228.4 Å² | 228.8 Å² | 233.2 Å² | 232.5 Å² | – | –
CC[C@H]1CC[C@H](NCc2cc3c(cc2OC)[C@H]2C[C@H]2C(=O)N3C)[C@H](c2ccccc2)N1 | – | 208.4 Å² | 208.2 Å² | 214.4 Å² | – | – | –
Cc1cc(F)ccc1-c1cc(N2CC[C@@H](O)[C@H]2CO)ncc1N(C)C(=O)C(C)(C)c1cc(C(F)(F)F)cc(C(F)(F)F)c1 | – | 245.7 Å² | 244.6 Å² | 246.4 Å² | 232.7 Å² | – | –
CN(C)C(=O)NC1(c2ccccc2)CCN(CC[C@@]2(c3ccc(F)c(F)c3)CN(C(=O)c3ccccc3)CCO2)CC1 | – | 241.2 Å² | 241.6 Å² | 243 Å² | – | – | –

SMILES | collision cross section in nitrogen [1] | collision cross section in nitrogen [2] | collision cross section in nitrogen [3] | collision cross section in nitrogen [4] | collision cross section in nitrogen [5] | collision cross section in nitrogen [6] | collision cross section in nitrogen (ion source: APCI, ion mode: Positive, ion type: [M]+ (permanent cation))
CN(C[C@@H](CC[N+]12CCC(C3CCCCC3)(CC1)CC2)c1ccc(Cl)c(Cl)c1)C(=O)c1cc(C(F)(F)F)cc(C(F)(F)F)c1 | 262.3 Å² | – | – | – | – | – | 260.7 Å²
CN1C(=O)N(c2ccccc2Br)Cc2cnc(Nc3ccc4c(c3)OCC(CO)O4)nc21 (configuration not stated) | – | 219.5 Å² | 218.9 Å² | 219.1 Å² | 220.2 Å² | 215.4 Å² | –
Cc1ccccc1N=Nc1ccc(NC(=O)c2ccnn2C)c(C)c1 | – | 189.6 Å² | 189.1 Å² | 200.2 Å² | 190.8 Å² | – | –
CNC(=O)[C@H]1O[C@@H](n2cnc3c(NCc4cc(Cl)ccc4OCc4cc(C)no4)ncnc32)[C@H](O)[C@@H]1N | – | 216.1 Å² | 216.2 Å² | 223.6 Å² | – | – | –
COc1ccc(OC(F)(F)F)cc1CN[C@H]1CCCN[C@H]1c1ccccc1 | – | 182.7 Å² | 183.3 Å² | 190.7 Å² | – | – | –
COc1cc(C=O)cc2c1[C@H](COC(N)=O)[C@]1(OC(C)=O)ON2C[C@H]2[C@@H]1N2C(C)=O | – | 191.3 Å² | 192.1 Å² | 190.5 Å² | – | – | –
COCCOc1cc2cc(C(=O)NC3CCN(C(C)C)CC3)n(CC(=O)Nc3ccc(Cl)cn3)c2cn1 | – | 234.1 Å² | 235.6 Å² | 239.2 Å² | 235.2 Å² | – | –
COc1cc(-c2nc(NC(=O)c3cc4cc(C)cc(C)c4n3CC(=O)O)sc2CCC2CCCCC2)c(OC)cc1Cl | – | 258.5 Å² | 258.2 Å² | 259.5 Å² | 258.7 Å² | – | –
COc1cccc(-c2ccc(/C=C\CN3CCCCCC3)cc2Cl)c1 | – | 185.2 Å² | 185.6 Å² | 196.9 Å² | – | – | –
Cc1nc(C)nc(N2C[C@@H](C)N(c3ccnc([C@@H](C)O)n3)[C@@H](C)C2)n1 | – | 191.2 Å² | 190.4 Å² | 183.4 Å² | 192.5 Å² | – | –
Cc1cc(CCN2CCN(c3nsc4ccccc34)CC2)cc2c1NC(=O)CC2(C)C | – | 202.2 Å² | 202.4 Å² | 205.3 Å² | 209.3 Å² | – | –
Cc1cc2c(cc1C(F)(F)F)N(C(=O)Nc1ccc(Oc3cccnc3C)nc1)CC2 | – | 214.2 Å² | 213.8 Å² | 211 Å² | 209.1 Å² | – | –
Cc1nc(-c2ccc3c(c2)CCN(CCC2CCC(NC(=O)/C=C/c4ccc(F)cc4)CC2)CC3)no1 (configuration not stated) | – | 225.5 Å² | 224.8 Å² | 236.2 Å² | 226.8 Å² | – | –
Cc1nccn1-c1ccc(Sc2cccc(C3(C(N)=O)CCOCC3)c2)cc1 | – | 196.7 Å² | 196.8 Å² | 188.1 Å² | – | – | –
Clc1cc(Cl)c2c(c1)N=C1CCCCCN1C2 | – | 158.5 Å² | 159.3 Å² | – | – | – | –
Cn1c(=O)cc(Oc2ccc(F)cc2F)c2cnc(NCC(C)(C)O)nc21 | – | 192.8 Å² | 192.4 Å² | 205.6 Å² | 193.4 Å² | – | –
O=C(Nc1ccc2[nH]ccc2c1)c1cc2cc(F)ccc2n1Cc1cccc(F)c1 | – | 195.9 Å² | 195.7 Å² | 202.1 Å² | 193.8 Å² | – | –
N=C(N)NC(=N)NCCc1ccccc1 | – | 145.7 Å² | 146.3 Å² | 148.3 Å² | – | – | –
NC(=O)c1nc(-c2cccc(-c3cc(F)ccc3OCC(F)(F)C(F)(F)F)c2)n[nH]1 | – | 189.4 Å² | 189.1 Å² | 190.9 Å² | 195.5 Å² | – | –
Nc1cc2c3c(c1)C(c1ccccc1)=N[C@@H](NC(=O)c1cccnc1)C(=O)N3CC2 | – | 201.2 Å² | 200.1 Å² | 209.2 Å² | – | – | –
O=C(N[C@H]1CN2CCC1CC2)c1ccc2c(c1)OCCO2 | – | 175.9 Å² | 175.7 Å² | – | 177.1 Å² | – | –
O=C1c2ccccc2C(=O)N1CCc1noc(-c2ccc(CN3CCCCCC3)s2)n1 | – | 214.3 Å² | 213.7 Å² | 213.7 Å² | – | – | –
O=C(O)c1cccc(N(Cc2cccnc2)c2ccc(OC(F)F)c(OC(F)F)c2)c1 | – | 201.3 Å² | 200.4 Å² | 205.9 Å² | 202.6 Å² | – | –
OC(Cc1ccccc1Cl)(Cn1cncn1)C1(Cl)CC1 (configuration not stated) | – | 167.3 Å² | 167 Å² | 184.1 Å² | – | – | –
OCC(CO)n1cnc(-c2ccc(F)cc2)c1-c1ccnc(Oc2ccccc2)n1 | – | 197.6 Å² | 197.1 Å² | 191 Å² | – | – | –
